Measurements: ChEMBL document CHEMBL3044730, “Synthesis, antimycobacterial, antiviral, antimicrobial activities, and QSAR studies of nicotinic acid benzylidene hydrazide derivatives” (Med Chem Res, 2012)
In brackets after ≈: the same amount, converted by molar mass.

Experiments:
Punta Toro virus = assay: Antiviral activity against Punta Toro virus infected Vero cells assessed as inhibition of virus-induced cytopathicity; type: functional, organism-based
[1] = test system: Vesicular stomatitis virus; assay: Antiviral activity against Vesicular stomatitis virus infected human HeLa cells assessed as inhibition of virus-induced cytopathicity by microscopy; type: functional, organism-based
[2] = test system: Mammalian orthoreovirus 1; assay: Antiviral activity against Mammalian orthoreovirus 1 infected Vero cells assessed as inhibition of virus-induced cytopathicity by microscopy; type: functional, organism-based; conditions: Mammalian orthoreovirus 1, Vero
Human alphaherpesvirus 2 = assay: Antiviral activity against Human herpesvirus 2 strain G infected human HEL cells assessed as inhibition of virus-induced cytopathicity by microscopy; type: functional, organism-based; conditions: Human alphaherpesvirus 2, strain G
Sindbis virus = assay: Antiviral activity against Sindbis virus infected Vero cells assessed as inhibition of virus-induced cytopathicity; type: functional, organism-based
Human alphaherpesvirus 1 [3] = assay: Antiviral activity against Human herpesvirus 1 strain KOS infected in human HEL cells assessed as inhibition of virus-induced cytopathicity by microscopy by microscopy; type: functional, organism-based; conditions: Human alphaherpesvirus 1, KOS
Staphylococcus aureus = assay: Antimicrobial activity against Staphylococcus aureus after 24 hr by serial dilution method; type: functional; design: unit not given here
Vaccinia virus = assay: Antiviral activity against Vaccinia virus infected human HEL cells assessed as inhibition of virus-induced cytopathicity by microscopy; type: functional, organism-based; conditions: Orthopoxvirus vaccinia
[4] = test system: Respiratory syncytial virus; assay: Antiviral activity against Respiratory syncytial virus infected human HeLa cells assessed as inhibition of virus-induced cytopathicity by microscopy; type: functional, organism-based
[5] = Cytotoxicity against Homo sapiens (human) MT4 cells after 4 days by MTT assay; type: cell-based
[6] = test system: Mycobacterium tuberculosis; assay: Antimicrobial activity against Mycobacterium tuberculosis by agar dilution method; type: functional
[7] = Cytotoxicity against Homo sapiens (human) HEL cells assessed as alteration in cell morphology by microscopy; type: cell-based
Coxsackievirus B4 [8] = assay: Antiviral activity against Human coxsackievirus B4 infected human HeLa cells assessed as inhibition of virus-induced cytopathicity by microscopy; type: functional, organism-based; conditions: Enterovirus B
[9] = Cytotoxicity against Homo sapiens (human) HeLa cells assessed as alteration in cell morphology by microscopy; type: cell-based
Escherichia coli = assay: Antimicrobial activity against Escherichia coli after 24 hr by serial dilution method; type: functional; design: unit not given here
Candida albicans [10] = assay: Antimicrobial activity against Candida albicans after 7 days by serial dilution method; type: functional; design: unit not given here
Candida albicans [11] = assay: Antimicrobial activity against Candida albicans after 2 days by serial dilution method; type: functional; design: unit not given here
[12] = test system: Human immunodeficiency virus 1; assay: Antiviral activity against Human immunodeficiency virus 1 IIIB infected MT4 cells assessed as inhibition of virus-induced cytopathic effect after 4 days by MTT assay; type: functional, organism-based; conditions: MT4, 96 h
[13] = test system: Human immunodeficiency virus 2; assay: Antiviral activity against Human immunodeficiency virus type 2 (ISOLATE ROD) infected MT4 cells assessed as inhibition of virus-induced cytopathic effect after 4 days by MTT assay; type: functional, organism-based; conditions: Human immunodeficiency virus 2, ISOLATE ROD, MT4, 96 h
Bacillus subtilis = assay: Antimicrobial activity against Bacillus subtilis after 24 hr by serial dilution method; type: functional; design: unit not given here
Coxsackievirus B4 [14] = assay: Antiviral activity against Human coxsackievirus B4 infected Vero cells assessed as inhibition of virus-induced cytopathicity; type: functional, organism-based; conditions: Enterovirus B
Human alphaherpesvirus 1 [15] = assay: Antiviral activity against TK(-) aciclovir-resistant Human herpesvirus 1 strain KOS infected in human HEL cells assessed as inhibition of virus-induced cytopathicity; type: functional, organism-based; conditions: Human alphaherpesvirus 1, KOS
[16] = test system: Human herpesvirus 3 strain Oka vaccine; assay: Antiviral activity against Human herpesvirus 3 strain Oka vaccine OKA 07-1 (Varicella zoster virus) infected in human HEL cells assessed as inhibition of virus-induced cytopathicity; type: functional, organism-based; conditions: Human alphaherpesvirus 3, OKA 07-1, HEL
[17] = Cytotoxicity against Chlorocebus aethiops (African green monkey) Vero cells assessed as alteration in cell morphology by microscopy; type: cell-based; conditions: chlorocebus sabaeus
[18] = test system: Human herpesvirus 5 strain AD169; assay: Antiviral activity against Human herpesvirus 5 strain AD169 Davis infected human HEL cells assessed as inhibition of virus-induced cytopathicity by microscopy; type: functional, organism-based; conditions: Human betaherpesvirus 5, Davis
Human respirovirus 3 = assay: Antiviral activity against Human parainfluenza virus 3 infected Vero cells assessed as inhibition of virus-induced cytopathicity by microscopy; type: functional, organism-based; conditions: Human respirovirus 3, Vero

Structure (SMILES) | EC50 (Punta Toro virus) [µg/mL] | EC50 [1] [µg/mL] | EC50 [2] [µg/mL] | EC50 (Human alphaherpesvirus 2) [µg/mL] | EC50 (Sindbis virus) [µg/mL] | EC50 (Human alphaherpesvirus 1 [3]) [µg/mL] | -logMIC (Staphylococcus aureus) | EC50 (Vaccinia virus) [µg/mL] | EC50 [4] [µg/mL] | CC50 at 96 h [5] [µg/mL] | MIC [6] [µg/mL] | CC50 [7] [µg/mL] | MCC [7] [µg/mL] | EC50 (Coxsackievirus B4 [8]) [µg/mL] | MCC [9] [µg/mL] | -logMIC (Escherichia coli) | -logMIC (Candida albicans [10]) | -logMIC (Candida albicans [11]) | EC50 [12] [µg/mL] | EC50 [13] [µg/mL] | other results
O=C(N/N=C/c1cccc(O)c1)c1cccnc1 | > 100 | > 100 | > 100 | > 100 | > 100 | > 100 | 1.29 | > 100 | > 100 | 98 (≈ 406 µM) | > 25 | > 100 | > 100 | > 100 | > 100 | 1.29 | 1.29 | 1.28 | > 98 | > 98 | -logMIC (Bacillus subtilis): 1.29; EC50 (Coxsackievirus B4 [14]): > 100 µg/mL; EC50 (Human alphaherpesvirus 1 [15]): > 100 µg/mL; EC50 [16]: > 100 µg/mL; MCC [17]: > 100 µg/mL; EC50 [18]: > 100 µg/mL; EC50 (Human respirovirus 3): > 100 µg/mL
COc1ccc(OC)c(/C=N/NC(=O)c2cccnc2)c1 | > 100 | > 100 | > 100 | > 20 | > 100 | > 20 | 1.36 | > 20 | > 100 | 13 (≈ 45.6 µM) | > 25 | 12 (≈ 42.1 µM) | 100 | > 100 | > 100 | 1.96 | 1.96 | 1.36 | > 13 | > 13 | -logMIC (Bacillus subtilis): 1.36; EC50 (Coxsackievirus B4 [14]): > 100 µg/mL; EC50 (Human alphaherpesvirus 1 [15]): > 20 µg/mL; EC50 [16]: > 20 µg/mL; MCC [17]: > 100 µg/mL; EC50 [18]: > 20 µg/mL; EC50 (Human respirovirus 3): > 100 µg/mL
COc1cc(/C=N/NC(=O)c2cccnc2)ccc1O | > 100 | > 100 | > 100 | > 20 | > 100 | > 20 | 0.43 | > 20 | > 100 | ≥ 93 | > 25 | > 100 | 100 | > 100 | > 100 | 0.43 | 1.64 | 1.34 | > 93 | > 93 | -logMIC (Bacillus subtilis): 0.43; EC50 (Coxsackievirus B4 [14]): > 100 µg/mL; EC50 (Human alphaherpesvirus 1 [15]): > 20 µg/mL; EC50 [16]: > 100 µg/mL; MCC [17]: > 100 µg/mL; EC50 [18]: > 20 µg/mL; EC50 (Human respirovirus 3): > 100 µg/mL
CCOc1cc(/C=N/NC(=O)c2cccnc2)ccc1O | > 100 | > 100 | > 100 | > 20 | > 100 | > 20 | 1.36 | > 20 | > 100 | ≥ 117 | > 25 | 63 (≈ 221 µM) | 100 | > 100 | > 100 | 1.06 | 1.96 | 1.36 | > 117 | > 117 | -logMIC (Bacillus subtilis): 1.36; EC50 (Coxsackievirus B4 [14]): > 100 µg/mL; EC50 (Human alphaherpesvirus 1 [15]): > 20 µg/mL; EC50 [16]: > 70 µg/mL; MCC [17]: > 100 µg/mL; EC50 [18]: > 20 µg/mL; EC50 (Human respirovirus 3): > 100 µg/mL
